Literature values as cited in PMC3466449 (Scientific Reports, 2012).
Non-standard residues stand in square brackets, D forms with d. No end group written: not given here. pGlu = O=C1CC[C@@H](C(=O)O)N1

Test system: C-domain of sACE
Conditions: C-domain over N-domain of sACE

| Molecule | C-domain selectivity |
| --- | --- |
| O=C(N[C@@H](Cc1ccccc1)P(=O)(O)C1CCCC1C(=O)N[C@@H](Cc1c[nH]c2ccccc12)C(=O)O)OCc1ccccc1 (some centres unmarked) [RXPA380] | approximately 3000 fold |
| [pGlu]GLPPRPKIPP [BPPb, bradykinin potentiating peptide b] | about 260 fold |
